Measured values: patent US20230028441A1, “NOVEL HETEROARYL-TRIAZOLE COMPOUNDS AS PESTICIDES” (Bayer Aktiengesellschaft, priority 2019, published 2023)

Columns and labels:
Type in all cases: in vivo
[1] = tested on: adult cat fleas (Ctenocephalides felis); test: Ctenocephalides felis in-vitro contact test, adult cat flea; conditions: 5 μg/cm^2 (=500 g/ha), after 48 hours, read-out: efficacy (fleas dead or moribund)
Outline: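 Acetone solutions were coated on glass tube walls, 900 ppm giving 5 μg/cm^2. After drying, 5-10 adult fleas per tube were held 48 h at room temperature. Fleas unable to climb away from a 45-50 °C heating plate within 5 min were scored dead or moribund, as % efficacy.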

[2] = tested on: cattle tick larvae (Rhipicephalus microplus), strain Parkhurst, resistant against synthetic pyrethroids; test: Rhipicephalus (Boophilus) microplus in-vitro contact test, larval cattle tick; conditions: 5 μg/cm^2 (=500 g/ha), after 48 hours, read-out: efficacy (larvae dead or moribund)
Outline: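 Acetone solutions of compound were coated on glass tube walls (900 ppm giving 5 μg/cm^2) and dried. 20–50 pyrethroid-resistant Parkhurst larvae were held per tube at 27° C and 85% relative humidity; after 48 h negative geotaxis scored efficacy as percent larvae dead or moribund.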

[3] = tested on: Musca domestica strain WHO-N; test: Musca domestica test (MUSCDO surface treatment & contact assay); conditions: 24 hours after contact, read-out: efficacy (mortality); for mortality at 4 mg/m2: surface concentration 4 mg/m^2, 30 minutes exposure; for mortality at 20 mg/m2: surface concentration 20 mg/m^2, 30 minutes exposure
Procedure: (§1) Solvent: Aceton+2000 ppm rapeseed oil methyl ester (RME)
In order to produce a sufficient, active ingredient containing solution it is necessary to solve the test compound in the solvent-mix (acetone at 2 mg/ml/RME 2000 ppm). This solution is pipetted onto a glazed tile and after evaporation of the acetone, adult flies of the species Musca domestica strain WHO-N are placed onto the dried surface. The exposure time is 30 minutes. Mortality in percent (%) is determined 24 hours after contact of the insects to the treated surface. 100% mortality means that all tested insects are dead, whereas 0% means that no insect died.

[4] = tested on: caterpillars of the fall army worm (Spodoptera frugiperda); test: Spodoptera frugiperda spray test (cotton leaves); conditions: 168 h
Outline: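 Cotton leaves sprayed with compound in water/DMF with 1000 ppm alkylaryl polyglycol ether emulsifier, ammonium salt and/or penetration enhancer at 1000 ppm added if necessary, then infested with fall armyworm caterpillars. Mortality in % scored after 7 days; 100% means all caterpillars killed.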

[5] = tested on: cattle ticks (Rhipicephalus microplus) strain Parkhurst, SP-resistant; test: Rhipicephalus (Boophilus) microplus dip test; conditions: 100 ppm, egg deposition after 7 days
Procedure: Test animal: cattle ticks (Rhipicephalus microplus) strain Parkhurst, SP-resistant
Solvent: dimethyl sulfoxide
To produce a suitable preparation of active compound, 10 mg of active compound are dissolved in 0.5 mL solvent, and the concentrate is diluted with water to the desired concentration.
This compound solution is pipetted into tubes. 8-10 engorged, adult, female cattle ticks (Rhipicephalus microplus) are placed in perforated tubes. These tubes are immersed in the aqueous compound solution until the ticks are completely moistened. After the liquid has drained off, the ticks are transferred to a filter paper in a plastic tray and stored in a climate chamber.
After 7 days egg deposition of fertile eggs is monitored. Eggs where fertility is not visible are stored in a climate chamber till hatching after about 42 days. An efficacy of 100% means all eggs are infertile; 0% means all eggs are fertile.

[6] = tested on: green peach aphid (Myzus persicae); test: Myzus persicae spray test; conditions: foliar, 120 h, 100 g/ha, after 5 days, Chinese cabbage leaf disks
Outline: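 Chinese cabbage leaf disks carrying all instars of Myzus persicae were sprayed with compound. The formulation was acetone/dimethylformamide diluted in water with 1000 ppm alkylarylpolyglycol ether emulsifier. Percent mortality was scored after 5 days, with 100% meaning all aphids killed.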

[7] = tested on: Blattella germanica strain PAULINIA; test: Blattella germanica test (BLTTGE surface treatment & contact assay); conditions: 24 hours after contact, read-out: efficacy (mortality)
Procedure: as §1
(§2) In order to produce a sufficient, active ingredient containing solution it is necessary to solve the test compound in the solvent-mix (acetone at 2 mg/ml/RME 2000 ppm). This solution is pipetted onto a glazed tile and after evaporation of the acetone, adult animals of the species Blattella germanica strain PAULINIA are placed onto the dried surface. The exposure time is 30 minutes.
(§3) Mortality in percent (%) is determined 24 hours after contact of the insects to the treated surface. 100% mortality means that all tested insects are dead, whereas 0% means that no insect died.

[8] = tested on: Anopheles funestus strain FUMOZ-R; test: Anopheles funestus test (ANPHFU surface treatment & contact assay); conditions: 24 hours after contact, read-out: efficacy (mortality)
Procedure: as §1
as §2, with “mosquitoes” for “animals”, “Anopheles funestus” for “Blattella germanica”, “FUMOZ-R (Hunt et al., Med. Vet. Entomol. 2005 September; 19(3): 271-275)” for “PAULINIA”
as §3

[9] = surface concentration 4 mg/m^2, 30 minutes exposure
[10] = surface concentration 20 mg/m^2, 30 minutes exposure

| SMILES | pest or weed control at 5 µg/cm2 [1] [%] | pest or weed control at 5 µg/cm2 [2] [%] | mortality at 4 mg/m2 [3] [%] | mortality at 20 mg/m2 [3] [%] | mortality at 20 ppm [4] [%] | efficacy (infertile eggs) [5] [%] | mortality at 100 g/ha [6] [%] | mortality at 4 mg/m2 [7, 9] [%] | mortality at 20 mg/m2 [7, 10] [%] | mortality at 4 mg/m2 [8, 9] [%] | mortality at 20 mg/m2 [8, 10] [%] |
| --- | --- | --- | --- | --- | --- | --- | --- | --- | --- | --- | --- |
| CC(NC(=O)c1cc(Cl)cc(C(F)(F)F)c1)c1nc(N)nn1-c1ccc(Cl)cn1 (racemic) [I-006, N-[1-[5-amino-2-(5-chloro-2-pyridyl)-1,2,4-triazol-3-yl]ethyl]-3-chloro-5-(trifluoromethyl)benzamide] | 100 | 100 | 90 to 100 | 90 to 100 | 100 | – | – | – | – | – | – |
| CNc1nc(C(C)NC(=O)c2cc(C(F)(F)F)cc(C(F)(F)F)c2)n(-c2ncccn2)n1 (stereo not drawn) [I-088] | 100 | 100 | 90 to 100 | 90 to 100 | – | 100 | 100 | 90 to 100 | 90 to 100 | 90 to 100 | 90 to 100 |
